Experimental data: EPA's ToxValDB 9.5 (doi:10.2903/j.efsa.2013.3166)
≈ marks a conversion by molar mass, not a printed value.

Columns and labels:
Lepomis macrochirus = settings: acute; duration: 96 hours; mortality
Perca sp. = settings: acute; duration: 96 hours; mortality
Canidae = settings: chronic; duration: 1 years; oral; Dog Other; food consumption
Apis mellifera = settings: acute, duration: 48 hours, mortality
Colinus virginianus = settings: for LD50: acute, oral, mortality
Pimephales promelas = settings: acute; mortality
Typhlodromus pyri = test: LR50; higher = less toxic; settings: not reported; mortality
[1] = acute, duration: 14 days, mortality

For `CC(C)(C)c1ccc(CCOc2ncnc3ccccc23)cc1` [Fenazaquin], which LC50 (Lepomis macrochirus) is on record?
Its LC50 is 34.1 ng/mL (≈ 0.111 µM).

What about the LC50 (Perca sp.) of the same compound?
The LC50 was 3.2 ng/mL (≈ 0.0104 µM).

What about the LC50 (Folsomia candida; [1]) of the same compound?
Its LC50 is greater than 1000 mg/kg.

And the NOEC (Folsomia candida; chronic/long-term, duration: 28 days)?
Its NOEC is 23 mg/kg.

And the NOAEL (Canidae)?
Its NOAEL is 5 mg/kg-day.

What about the LC50 (Tagia sp.; [1]) of the same compound?
Its LC50 is 26.5 mg/kg.

And the NOEC (Tagia sp.; chronic/long-term, duration: 8 weeks)?
The NOEC was 1.25 mg/kg.

And the LD50 (Apis mellifera; dermal)?
The LD50 was 1.21 µg/piece.

And the LD50 (Apis mellifera; oral, unspecified)?
Its LD50 is 4.29 µg/piece.

What about the LD50 (Rattus norvegicus; acute, oral, M, mortality) of the same compound?
Its LD50 is 134 mg/kg-day.

What about the NOAEL (Rattus norvegicus; chronic, duration: 2 years, oral, histopathology: nonneoplastic) of the same compound?
Its NOAEL is 0.46 mg/kg-day.

And the NOEL (Rattus norvegicus; reproduction developmental)?
Its NOEL is 25 mg/kg-day.

What about the NOAEL (Rattus norvegicus; reproduction developmental, food consumption) of the same compound?
Its NOAEL is 10 mg/kg-day.

And the LD50 (Colinus virginianus; diet)?
The LD50 was greater than 1170 mg/kg-day.

What about the LD50 (Colinus virginianus) of the same compound?
The LD50 was 1750 mg/kg-day.

And the NOEC (Colinus virginianus; reproduction developmental)?
The NOEC was 80.3 mg/kg-day.

And the LC50 (Pimephales promelas)?
The LC50 was 4.2 ng/mL (≈ 0.0137 µM).

And the LR50 (Typhlodromus pyri)?
The LR50 was less than 2 g/ha.
